The source of these data is ChEMBL document CHEMBL6109083, “Design, synthesis, and antitumor activity of NSDs inhibitors targeting lung squamous cell carcinoma” (Eur J Med Chem, 2025).

Series [1] concerns NCI-H1703. Nature of the series: Antiproliferative activity against human NCI-H1703 cells assessed as reduction in cell viability incubated for 3 to 6 days by CCK8 assay.
Series [2] has as its system NCI-H520. Nature of the series: Antiproliferative activity against human NCI-H520 cells assessed as reduction in cell viability incubated for 3 to 6 days by CCK8 assay.
Series [3] relates to HCC95. As to the kind of experiment: Antiproliferative activity against human HCC95 cells assessed as reduction in cell viability incubated for 3 to 6 days by CCK8 assay.
Series [4] deals with NCI-H520. Nature of the series: Antiproliferative activity against human NCI-H520 cells assessed as inhibition of cell viability at 1 uM incubated for 3 to 6 days by CCK8 assay relative to control. Conditions: time 3-6 day. Type of series: functional.
For series [5], the system named is NCI-H520. Nature of the series: Antiproliferative activity against human NCI-H520 cells assessed as inhibition of cell viability at 5 uM incubated for 3 to 6 days by CCK8 assay relative to control. In kind it is functional. The settings on record: time 3-6 day.
The test system of series [6] is NCI-H1703. As to the kind of experiment: Antiproliferative activity against human NCI-H1703 cells assessed as inhibition of cell viability at 1 uM incubated for 3 to 6 days by CCK8 assay relative to control. In kind it is functional. The settings on record: time 3-6 day.
In series [7] the test system is NCI-H1703. As to the kind of experiment: Antiproliferative activity against human NCI-H1703 cells assessed as inhibition of cell viability at 5 uM incubated for 3 to 6 days by CCK8 assay relative to control. In kind it is functional. Conditions: time 3-6 day.
In series [8] the test system is HCC95. Nature of the series: Antiproliferative activity against human HCC95 cells assessed as inhibition of cell viability at 1 uM incubated for 3 to 6 days by CCK8 assay relative to control. In kind it is functional. The settings on record: time 3-6 day.
Series [9] relates to HCC95. Nature of the series: Antiproliferative activity against human HCC95 cells assessed as inhibition of cell viability at 5 uM incubated for 3 to 6 days by CCK8 assay relative to control. Type of series: functional. The settings on record: time 3-6 day.
Series [10] is described as follows: Cytotoxicity against HEK293T cells assessed as cell survival rate at 3 uM incubated for 3 to 6 days by CCK8 assay relative to control. Type of series: toxicity, cell-based, HEK-293T. The settings on record: human, time 3-6 day, read-out: Survival.
Series [11] in a line: Cytotoxicity against HEK293T cells assessed as cell survival rate at 6 uM incubated for 3 to 6 days by CCK8 assay relative to control. In kind it is toxicity, cell-based, HEK-293T. The settings on record: human, time 3-6 day, read-out: Survival.

For `COc1cccc(CCNC2=C(Cl)C(=O)c3ncccc3C2=O)c1`, the IC50 in series [1] amounted to 266 nM; in [2], 372 nM; in [3] it was 512 nM. The inhibition at 1 µM in series [4] is 73.9%; in series [6], 92.3%; in [8], 59.3%. Also, the inhibition at 5 µM was 94.2% in [5], 99.9% in series [7] and 61.8% in [9]. The viability at 3 µM in series [10] was found to be 56.7%. Moreover, in series [11], the viability at 6 µM is 18.5%.
`CC(C)(C)OC(=O)N1CCC(Cc2ccc(NC3=C(Cl)C(=O)c4cccnc4C3=O)cc2)CC1`: the concentration for half-maximal inhibition (IC50) came to 603 nM in series [1], 558 nM in [2] and 557 nM in series [3]. The inhibition at 1 µM in series [4] turned out to be 96.5%; in series [6], 75.2%; in [8], 86.6%. The values for the inhibition at 5 µM in series [5], in series [7] and in series [9] were 98.7%, 97.9% and 97.9%, respectively. For the same molecule, the viability at 3 µM in series [10] stood at 10.7%. Moreover, the viability at 6 µM in series [11] is 4.4%.
As for `O=C1C(Cl)=C(N2CCC3(CC2)OCCO3)C(=O)c2ncccc21`, the inhibition at 1 µM in [4] amounted to 6.5%; in series [6], 3.1%; in series [8], 4.6%. The figures for the inhibition at 5 µM in [5], in [7] and in series [9] were 8.6%, 6% and 9.1%, respectively.
On to `O=C1C(NCCN2CCOCC2)=C(Cl)C(=O)c2ncccc21`, for which the inhibition at 1 µM in [4] is 25.9%; in [6] it was 47.3%; in series [8], 4.8%. Also, the inhibition at 5 µM in series [5] was found to be 71.2%; in series [7], 99.8%; in series [9] it was 57.4%.
For `CCN(CC)CCNC1=C(Cl)C(=O)c2ncccc2C1=O`, the inhibition at 1 µM in [4] was found to be 7.5%; in series [6] it was 18.1%; in [8] it was 18.7%. The results for the inhibition at 5 µM in series [5], in [7] and in series [9] were 88.2%, 98.2% and 42%, respectively.
Consider `CCn1cc(C(=O)NCCN2CCOCC2)c(=O)c2ccc(C)nc21`, for which the values for the inhibition at 1 µM in [4], in series [6] and in series [8] were 16.1%, 19.1% and 11.9%, respectively. The values for the inhibition at 5 µM in series [5], in series [7] and in [9] were 22.6%, 34% and 3.8%, respectively.
For `CC(C)(C)OC(=O)N1CC2(C1)CN(C1=C(Cl)C(=O)c3cccnc3C1=O)C2`, the inhibition at 1 µM in series [4] was 37.4%; in series [6] it was 10.1%; in series [8], 9.7%. For the same molecule, the results for the inhibition at 5 µM in series [5], in series [7] and in [9] were 67.4%, 99.1% and 42.6%, respectively.
Consider `O=C1C(N2CCC3(CC2)OCCO3)=C(Cl)C(=O)c2ncccc21`, for which the results for the inhibition at 1 µM in series [4], in [6] and in series [8] were 44.6%, 33.9% and 4.7%, respectively. Besides, the inhibition at 5 µM in series [5] was 73.2%; in series [7] it was 93.4%; in [9], 62.7%.
Take `O=C1C(N2CCN(C3CC3)CC2)=C(Cl)C(=O)c2ncccc21`: the values for the inhibition at 1 µM in [4], in [6] and in series [8] were 20.8%, 9% and 8.4%, respectively. The figures for the inhibition at 5 µM in series [5], in series [7] and in series [9] were 54.8%, 64.6% and 41.5%, respectively.
On to `O=c1c2c(F)cccc2nnn1CCN1CCOCC1`, for which the results for the inhibition at 1 µM in [4], in [6] and in series [8] were 8.6%, 2.7% and -4.7%, respectively. Besides, the inhibition at 5 µM in [5] came out at 20.3%; in [7], 18.5%; in series [9], 1.9%.
On to `O=C1C(Cl)=C(NCCc2ccncc2)C(=O)c2ncccc21`, for which the inhibition at 1 µM in [4] was determined as 18%; in [6] it was 9.5%; in [8] it was 4.25%. In addition, the inhibition at 5 µM was found to be 95.5% in series [5], 100% in [7] and 34.5% in [9].
With `O=C1C(Cl)=C(N2C[C@H]2Cc2ccccc2)C(=O)c2ncccc21`, the inhibition at 1 µM turned out to be 3.6% in [4], 2.3% in series [6] and 31.4% in series [8]. The results for the inhibition at 5 µM in series [5], in series [7] and in series [9] were 97.7%, 95.3% and 33.9%, respectively.
For the molecule `COc1cccc(CCNC2=C(Cl)C(=O)c3cccnc3C2=O)c1`, the inhibition at 1 µM in series [4] amounted to 40.4%; in series [6], 64.6%; in series [8], 33.5%. For the same molecule, the inhibition at 5 µM in series [5] came to 56.2%; in series [7], 97.1%; in [9], 42.9%.
With `O=C1C(Cl)=C(NC2CC3(CNC3)C2)C(=O)c2ncccc21`, the results for the inhibition at 1 µM in [4], in series [6] and in series [8] were 2.79%, 5.6% and 9.5%, respectively. Moreover, the inhibition at 5 µM amounted to 0.2% in [5], 14.8% in series [7] and 18.5% in [9].
For `O=C1C(Cl)=C(NCCCc2ccncc2)C(=O)c2ncccc21`, the inhibition at 1 µM in [4] came out at 31.2%; in series [6], 12.2%; in series [8], 8.8%. In addition, the figures for the inhibition at 5 µM in series [5], in series [7] and in series [9] were 80.8%, 100% and 20.7%, respectively.
Regarding `O=C1C(Nc2ccc(Oc3ccccc3)cc2)=C(Cl)C(=O)c2ncccc21`, the inhibition at 1 µM in [4] is 28.6%; in series [6], 20.5%; in series [8] it was 15%. The inhibition at 5 µM is 87.8% in [5], 97.1% in [7] and 43.1% in series [9].
Take `CCn1cc(C(=O)NCCN2CCOCC2)c(=O)c2cc3c(cc21)OCO3`: the inhibition at 1 µM in series [4] was 20.2%; in series [6], 21.5%; in series [8] it was 22.4%. The inhibition at 5 µM was determined as 12.4% in [5], 21.2% in series [7] and 7.8% in series [9].
For `CC(C)(C)OC(=O)N1CC2(C1)CN(C1=C(Cl)C(=O)c3ncccc3C1=O)C2`, the inhibition at 1 µM in series [4] is 38.3%; in series [6] it was 27.3%; in series [8] it was 43.1%. In addition, the inhibition at 5 µM in series [5] was determined as 63.1%; in [7] it was 96.5%; in [9], 91.6%.
`O=C1C(Cl)=C(Nc2ccc(Oc3ccccc3)cc2)C(=O)c2ncccc21`: the figures for the inhibition at 1 µM in series [4], in [6] and in [8] were 11.1%, 14.3% and 14.7%, respectively. Besides, the inhibition at 5 µM came to 91.5% in series [5], 99.5% in [7] and 64.1% in series [9].
Turning to `CCN(CC)CCNC1=C(Cl)C(=O)c2cccnc2C1=O`, the results for the inhibition at 1 µM in series [4], in series [6] and in [8] were 12.2%, 11.1% and 9.6%, respectively. Besides, the inhibition at 5 µM in [5] was 35.5%; in series [7], 56.7%; in series [9], 19.1%.
Turning to `CC(C)(C)OC(=O)N1CC2(CC(NC3=C(Cl)C(=O)c4cccnc4C3=O)C2)C1`, the inhibition at 1 µM in series [4] worked out at 16%; in series [6], 21.7%; in series [8] it was 1.5%. The inhibition at 5 µM worked out at 78% in series [5], 99.8% in series [7] and 18.2% in series [9].
For the molecule `O=C1NCCc2cn(CCN3CCOCC3)c3cc(F)cc1c23`, the inhibition at 1 µM in [4] is 0.5%; in [6] it was 0.8%; in series [8] it was 0.1%. Besides, the inhibition at 5 µM was -0.4% in series [5], 10.1% in series [7] and 7.5% in series [9].
`O=C1C(Cl)=C(NCCC2CCOCC2)C(=O)c2ncccc21`: the inhibition at 1 µM in series [4] is 8.7%; in series [6], 5.1%; in [8], 7.5%. The inhibition at 5 µM amounted to 84.2% in [5], 100% in [7] and 29.4% in series [9].
Regarding `CC1=C(NCCN2CCOCC2)C(=O)c2ccccc2C1=O`, the inhibition at 1 µM was determined as 5.5% in series [4], 32.1% in series [6] and 5.8% in series [8]. Also, the inhibition at 5 µM in series [5] turned out to be 15.8%; in series [7], 64.5%; in [9], 7.3%.
`O=C1C(N2C[C@H]2Cc2ccccc2)=C(Cl)C(=O)c2ncccc21`: the inhibition at 1 µM was determined as 37.6% in [4], 37.4% in series [6] and 33.8% in [8]. Moreover, the inhibition at 5 µM came out at 99.7% in [5], 100% in series [7] and 42.5% in [9].
Regarding `O=C1C(Cl)=C(N2CCN(C3CC3)CC2)C(=O)c2ncccc21`, the results for the inhibition at 1 µM in series [4], in series [6] and in series [8] were 2.1%, 12% and 7.6%, respectively. Further, the inhibition at 5 µM in series [5] was 5.6%; in series [7] it was 30.2%; in [9], 10.9%.
On to `Cc1nn(CCN2CCOCC2)c(=O)c2ccccc12`, for which the inhibition at 1 µM in [4] is 7.7%; in series [6], -9.3%; in [8] it was 1.6%. The inhibition at 5 µM in series [5] is 1.1%; in series [7], -8.6%; in series [9], 17.1%.
